Literature values in patent US20030149010A1, “Combination of an aldosterone receptor antagonist and an HMG CoA reductase inhibitor” (priority 2001, published 2003).

What was measured:
[1] = system: patients with severe heart failure; settings: spironolactone added to ACE inhibitor therapy; 1663 patients with severe heart failure
[2] = system: patients afflicted with congestive heart failure; settings: coadministered with an ACE inhibitor

CC(=O)S[C@@H]1CC2=CC(=O)CC[C@]2(C)[C@H]2CC[C@@]3(C)[C@@H](CC[C@@]34CCC(=O)O4)[C@H]12 [spironolactone, 17-hydroxy-7α-mercapto-3-oxo-17α-pregn-4-ene-21-carboxylic acid γ-lactone acetate]
reduction in hospitalizations [1]: 35%
reduction in mortality [1]: 30%
effectiveness in congestive heart failure [2]: highly effective in 13 of 16 patients
